Patent US12168650B2, “Crystalline forms of 3-(5-(2-hydroxy-2-methylpropoxy)-6-methylpyrazin-2-yl)-1H-indole-7-carbonitrile” (NIDO BIOSCIENCES, INC., priority 2022, dated 2024)

Test: Stability of Form C (Tables 5A-5F)
Type: physicochemical

## Cc1nc(-c2c[nH]c3c(C#N)cccc23)cnc1OCC(C)(C)O [Form C, 3-(5-(2-hydroxy-2-methylpropoxy)-6-methylpyrazin-2-yl)-1H-indole-7-carbonitrile]
25° C./60% RH, 01 Month
  Impurities, HPLC: A: <0.05 area %
  Impurities, HPLC: B: <0.05 area %
  Impurities, HPLC: C: <0.05 area %
  Impurities, HPLC: D: <0.05 area %
  Impurities, HPLC: RRT 1.07: 0.71 area %
  Impurities, HPLC: SM1: <0.05 area %
  Impurities, HPLC: SM2: <0.05 area %
  Impurities, HPLC: Unidentified impurity: <0.05 area %
  Purity, HPLC: 99.3 area %
  Water content: <0.05 wt %
25° C./60% RH, 03 Month
  Impurities, HPLC: A: <0.05 area %
  Impurities, HPLC: B: <0.05 area %
  Impurities, HPLC: C: <0.05 area %
  Impurities, HPLC: D: <0.05 area %
  Impurities, HPLC: RRT 1.07: 0.77 area %
  Impurities, HPLC: SM1: <0.05 area %
  Impurities, HPLC: SM2: <0.05 area %
  Impurities, HPLC: Unidentified impurity: <0.05 area %
  Purity, HPLC: 99.2 area %
  Water content: <0.05 wt %
25° C./60% RH, 06 Month
  Impurities, HPLC: A: <0.05 area %
  Impurities, HPLC: B: <0.05 area %
  Impurities, HPLC: C: <0.05 area %
  Impurities, HPLC: D: <0.05 area %
  Impurities, HPLC: RRT 1.07: 0.73 area %
  Impurities, HPLC: SM1: <0.05 area %
  Impurities, HPLC: SM2: <0.05 area %
  Impurities, HPLC: Unidentified impurity: <0.05 area %
  Purity, HPLC: 99.3 area %
  Water content: <0.05 wt %
25° C./60% RH, 09 Month
  Assay, HPLC: 99.4 wt %
  Impurities, HPLC: A: <0.05 area %
  Impurities, HPLC: B: <0.05 area %
  Impurities, HPLC: C: <0.05 area %
  Impurities, HPLC: D: <0.05 area %
  Impurities, HPLC: RRT 1.07: 0.72 area %
  Impurities, HPLC: SM1: <0.05 area %
  Impurities, HPLC: SM2: <0.05 area %
  Impurities, HPLC: Unidentified impurity: <0.05 area %
  Purity, HPLC: 99.3 area %
  Water content: <0.05 wt %
25° C./60% RH, 12 Month
  Assay, HPLC: 99.4 wt %
  Impurities, HPLC: A: <0.05 area %
  Impurities, HPLC: B: <0.05 area %
  Impurities, HPLC: C: <0.05 area %
  Impurities, HPLC: D: <0.05 area %
  Impurities, HPLC: RRT 1.07: 0.74 area %
  Impurities, HPLC: SM1: <0.05 area %
  Impurities, HPLC: SM2: <0.05 area %
  Impurities, HPLC: Unidentified impurity: <0.05 area %
  Purity, HPLC: 99.3 area %
  Water content: <0.05 wt %
25° C./60% RH, Initial
  Impurities, HPLC: A: <0.05 area %
  Impurities, HPLC: B: <0.05 area %
  Impurities, HPLC: C: <0.05 area %
  Impurities, HPLC: D: <0.05 area %
  Impurities, HPLC: RRT 1.07: 0.77 area %
  Impurities, HPLC: SM1: <0.05 area %
  Impurities, HPLC: SM2: <0.05 area %
  Impurities, HPLC: Unidentified impurity: <0.05 area %
  Purity, HPLC: 99.2 area %
  Water content: <0.05 wt %
40° C./75% RH, 01 Month
  Assay, HPLC: 99.7 wt %
  Impurities, HPLC: A: <0.05 area %
  Impurities, HPLC: B: <0.05 area %
  Impurities, HPLC: C: <0.05 area %
  Impurities, HPLC: D: <0.05 area %
  Impurities, HPLC: RRT 1.07: 0.70 area %
  Impurities, HPLC: SM1: <0.05 area %
  Impurities, HPLC: SM2: <0.05 area %
  Impurities, HPLC: Unidentified impurity: <0.05 area %
  Purity, HPLC: 99.3 area %
  Water content: <0.05 wt %
40° C./75% RH, 03 Month
  Assay, HPLC: 98.7 wt %
  Impurities, HPLC: A: <0.05 area %
  Impurities, HPLC: B: <0.05 area %
  Impurities, HPLC: C: <0.05 area %
  Impurities, HPLC: D: <0.05 area %
  Impurities, HPLC: RRT 1.07: 0.77 area %
  Impurities, HPLC: SM1: <0.05 area %
  Impurities, HPLC: SM2: <0.05 area %
  Impurities, HPLC: Unidentified impurity: <0.05 area %
  Purity, HPLC: 99.2 area %
  Water content: <0.05 wt %
40° C./75% RH, 06 Month
  Assay, HPLC: 99.1 wt %
  Impurities, HPLC: A: <0.05 area %
  Impurities, HPLC: B: <0.05 area %
  Impurities, HPLC: C: <0.05 area %
  Impurities, HPLC: D: <0.05 area %
  Impurities, HPLC: RRT 1.07: 0.73 area %
  Impurities, HPLC: SM1: <0.05 area %
  Impurities, HPLC: SM2: <0.05 area %
  Impurities, HPLC: Unidentified impurity: <0.05 area %
  Purity, HPLC: 99.3 area %
  Water content: <0.05 wt %
40° C./75% RH, Initial
  Assay, HPLC: 99.4 wt %
  Impurities, HPLC: A: <0.05 area %
  Impurities, HPLC: B: <0.05 area %
  Impurities, HPLC: C: <0.05 area %
  Impurities, HPLC: D: <0.05 area %
  Impurities, HPLC: RRT 1.07: 0.77 area %
  Impurities, HPLC: SM1: <0.05 area %
  Impurities, HPLC: SM2: <0.05 area %
  Impurities, HPLC: Unidentified impurity: <0.05 area %
  Purity, HPLC: 99.2 area %
  Water content: <0.05 wt %
Conditions where the temperature and relative humidity are altered
  Stability: stable
